Data published in the NIST ThermoML archive (doi:10.1021/je200766t).

Conditions: Liquid, Closed cell (Static) method

OCC(O)CO [glycerol]
Conditions	vapor or sublimation pressure [kPa]
351.8 K	0.00583
362.02 K	0.0129
372.06 K	0.0258
382.08 K	0.0544
392.18 K	0.102
402.16 K	0.18
412.24 K	0.315
422.28 K	0.534
432.45 K	0.981
452.64 K	2.747
462.86 K	4.099

OCCCO [propan-1,3-diol]
Conditions	vapor or sublimation pressure [kPa]
313.2 K	0.0111
323.26 K	0.026
333.23 K	0.0574
343.16 K	0.12
351.33 K	0.221
361.61 K	0.43
362.97 K	0.462
371.65 K	0.785
381.7 K	1.395
391.7 K	2.376
391.73 K	2.374
401.64 K	3.883
411.71 K	6.212
421.69 K	9.628
431.74 K	14.62
441.73 K	21.63
451.78 K	31.44
461.85 K	44.81
